Where two headings read alike, the source gives them in different places. Square brackets hold non-standard residues; d marks the D form. Peptide text beside a SMILES is read from it.
Columns and labels:
calmodulin = calmodulin (Homo sapiens, UniProt P0DP23); assay: calcium-dependent phosphodiesterase assay (calmodulin activity); type: biochemical; conditions: for SPECIFICITY: comparison of IC50 for phosphodiesterase with IC50 for calmodulin
Procedure: In the calcium dependent phosphodiesterase assay, calmodulin can be assayed by its ability to stimulate phosphodiesterase activity as determined by a two-step assay procedure illustrated by reactions (1) and (2) below. [drawing 1]
During the first step of the assay cyclic adenosine 3'5'-monophosphate (cAMP) is incubated with calcium-activated phosphodiesterase (Cal-PDE), which hydrolyses the 3'bond producing adenosine 5'-monophosphate (5'-AMP). During the second step, 5'-AMP is quantitatively converted into adenosine and inorganic phosphate (Pi) through the action of a 5-nucleotidase. The reaction is followed by the measurement of the Pi formed by reading the absorbance at 660 nm after reacting with ammonium molybdate. The amount of Pi formed is directly related to the phosphodiesterase activity which depends on the level of activation by calmodulin.
To sample assay tubes were added the following components: assay buffer, 25 ul; CaCl2, 5 ul; 5'-nucleotidase, 7.5 ul (stock solution is 10 units/ml); calmodulin 5 units; calmodulin inhibitor peptides to obtain the desired final concentration of 50 μM. The volume was then made up to 200 ul with water. Control blanks were prepared replacing the peptides with water. The added components were thoroughly mixed and the tubes incubated at 30° C. for 10 min. […] The samples were centrifuged to remove the protein precipitate and the 50 ul of the supernatant was withdrawn for phosphate measurement. […] The absorbance of the solution were read at 660 nm using water as a blank, identified as control "Calmo."
The two controls used in the assay, one without and one with calmodulin, as indicated in FIG. 1 and Table I were as follows,: (1) PDE:
These three controls were used in the calcium-dependent phosphodiesterase assay for reproducibility of the assay.
In addition to the calcium-dependent phosphodiesterase assay data, IC50 values were determined for many of the peptides. The assay carried out for the determination in the IC50 values differed from the above screening assay by the concentration of the peptides being tested.
(3) TFP: trifluoperazine; and (4) Calmidasolium: (1-[bis-(4-chlorophenyl)methyl]-3[-2-(2,4-dichlorophenyl)-2[(2,4-dichlorophenyl)methoxy]-ethyl]-1H-imidazolium chloride. The IC50 values were calculated using sigmoidal curve software (Graphpad, ISI; San Diego, Calif.) using the % inhibition at different mixture concentrations (see protocol for determination of % inhibition).
The (L)-amino acid counterpart for five (5) of the all (D)-amino acid peptides identified from the PS-SCL were synthesized in order to study the stereoselectivity of the inhibition.

phosphodiesterase = assay: calcium-dependent phosphodiesterase assay in the absence of calmodulin; type: biochemical; conditions: Table III
Procedure: To sample assay tubes were added the following components: assay buffer, 25 ul; CaCl2, 5 ul; 5'-nucleotidase, 7.5 ul (stock solution is 10 units/ml); calmodulin 5 units; calmodulin inhibitor peptides to obtain the desired final concentration of 50 μM. The volume was then made up to 200 ul with water. Control blanks were prepared replacing the peptides with water. The added components were thoroughly mixed and the tubes incubated at 30° C. for 10 min. Then, 25 ul of cAMP at 10.8 mM was added and incubated for 90 min at 30° C. The reaction was stopped by the addition of 50 ul of 55% trichloroacetic acid (TCA). The samples were centrifuged to remove the protein precipitate and the 50 ul of the supernatant was withdrawn for phosphate measurement. To the supernatant aliquot, 50 ul ammonium molybdate (0.55% in 1.1 N sulfuric acid) was added, followed by the addition of 5 ul of reducing agent (24 g sodium bisulfite, 2.4 g sodium sulfite, 0.5 g of 1-amino-2-naphthol-4-sulfonic acid in 200 ml of water), and the contents were mixed by vortexing. The absorbance of the solution were read at 660 nm using water as a blank, identified as control "Calmo."
As described above, one of the undesirable biological effects of existing calmodulin inhibitors is their non-specific binding to other proteins and the like. Therefore, the specificity of the instant inhibitory peptides for calmodulin was examined. The specificity was determined using the calcium-dependent phosphodiesterase assay described in Example I. The assay was carried out for the determination of IC50 values in the presence of calmodulin (IC50 value for calmodulin) and in the absence of calmodulin (IC50 for phosphodiesterase), the latter of which provides the effect of the inhibitory peptides on the phosphodiesterase.

[1] = Table I, assayed at 75, 50 and 12.5 μM, average of repeated assays, read-out: Average IC50
[2] = Table III, in the presence of calmodulin, read-out: IC50 (μM) for calmodulin
[3] = Table II, (L)-amino acid peptides, concentrations 0.2 to 50.0 μM, read-out: IC50

| SMILES | IC50 (calmodulin; [1]) | IC50 (calmodulin; [2]) | SPECIFICITY (calmodulin) | IC50 (phosphodiesterase) | IC50 (calmodulin; [3]) | calmodulin inhibitory activity, in words (calmodulin; (L)-amino acid peptides of Table II) |
| --- | --- | --- | --- | --- | --- | --- |
| CC[C@@H](C)[C@@H](NC(=O)[C@@H](CCC(N)=O)NC(=O)[C@@H](CC(C)C)NC(C)=O)C(=O)N[C@@H](C(=O)N[C@H](CC(C)C)C(=O)N[C@H](Cc1c[nH]c2ccccc12)C(N)=O)[C@H](C)CC [Ac-(D)Leu-(D)Gln-(D)Ile-(D)Ile-(D)Leu-(D)Trp-NH2] (Ac-[dL][dQ][dI][dI][dL][dW]-NH2) | 27 µM | 25 µM | 4.8 | 119 µM | – | – |
| CC[C@@H](C)[C@@H](NC(=O)[C@@H](Cc1c[nH]c2ccccc12)NC(=O)[C@@H](CC(C)C)NC(C)=O)C(=O)N[C@@H](C(=O)N[C@H](Cc1c[nH]cn1)C(=O)N[C@H](CCCNC(=N)N)C(N)=O)[C@H](C)CC [Ac-(D)Leu-(D)Trp-(D)Ile-(D)Ile-(D)His-(D)Arg-NH2] (Ac-[dL][dW][dI][dI][dH][dR]-NH2) | 5.1 µM | – | – | – | – | – |
| CC[C@@H](C)[C@@H](NC(=O)[C@@H](Cc1c[nH]c2ccccc12)NC(=O)[C@@H](CC(C)C)NC(C)=O)C(=O)N[C@@H](C(=O)N[C@H](CC(C)C)C(=O)N[C@H](CCCNC(=N)N)C(N)=O)[C@H](C)CC [Ac-(D)Leu-(D)Trp-(D)Ile-(D)Ile-(D)Leu-(D)Arg-NH2] (Ac-[dL][dW][dI][dI][dL][dR]-NH2) | 7.2 µM | – | – | – | – | – |
| CC[C@H](C)[C@H](NC(=O)[C@H](CCC(N)=O)NC(=O)[C@H](CC(C)C)NC(C)=O)C(=O)N[C@@H](Cc1c[nH]cn1)C(=O)N[C@@H](CC(C)C)C(=O)N[C@@H](CCCNC(=N)N)C(N)=O [Ac-Leu-Gln-Ile-His-Leu-Arg-NH2] (Ac-LQIHLR-NH2) | – | – | – | – | 87 µM | – |
| Clc1ccc(C(c2ccc(Cl)cc2)n2cc[n+](CC(OCc3ccc(Cl)cc3Cl)c3ccc(Cl)cc3Cl)c2)cc1 (stereo not shown) [Calmidazolium, (1-[bis-(4-chlorophenyl)methyl]-3[-2-(2,4-dichlorophenyl)-2[(2,4-dichlorophenyl)methoxy]-ethyl]-1H-imidazolium chloride, reference compound] | 9 µM | – | – | – | – | – |

Further lines, results first:

| IC50 (calmodulin; [1]) | IC50 (calmodulin; [2]) | SPECIFICITY (calmodulin) | IC50 (phosphodiesterase) | IC50 (calmodulin; [3]) | calmodulin inhibitory activity, in words (calmodulin; (L)-amino acid peptides of Table II) | SMILES |
| --- | --- | --- | --- | --- | --- | --- |
| 1.1 µM | – | 100 | 112 µM | – | – | CC(=O)N[C@H](CC(C)C)C(=O)N[C@H](Cc1c[nH]c2ccccc12)C(=O)N[C@H](CCCNC(=N)N)C(=O)N[C@H](Cc1c[nH]cn1)C(=O)N[C@H](Cc1c[nH]cn1)C(=O)N[C@H](Cc1c[nH]c2ccccc12)C(N)=O [Ac-(D)Leu-(D)Trp-(D)Arg-(D)His-(D)His-(D)Trp-NH2] (Ac-[dL][dW][dR][dH][dH][dW]-NH2) |
| 5.9 µM | 6.7 µM | 10 | 68 µM | – | – | CC(=O)N[C@H](CC(C)C)C(=O)N[C@H](Cc1c[nH]c2ccccc12)C(=O)N[C@H](CCCNC(=N)N)C(=O)N[C@H](Cc1c[nH]cn1)C(=O)N[C@H](CC(C)C)C(=O)N[C@H](Cc1c[nH]c2ccccc12)C(N)=O [Ac-(D)Leu-(D)Trp-(D)Arg-(D)His-(D)Leu-(D)Trp-NH2] (Ac-[dL][dW][dR][dH][dL][dW]-NH2) |
| 0.96 µM | 1.2 µM | 69 | 84 µM | – | – | CC[C@@H](C)[C@@H](NC(=O)[C@@H](CCCNC(=N)N)NC(=O)[C@@H](Cc1c[nH]c2ccccc12)NC(=O)[C@@H](CC(C)C)NC(C)=O)C(=O)N[C@H](Cc1c[nH]cn1)C(=O)N[C@H](Cc1c[nH]c2ccccc12)C(N)=O [Ac-(D)Leu-(D)Trp-(D)Arg-(D)Ile-(D)His-(D)Trp-NH2] (Ac-[dL][dW][dR][dI][dH][dW]-NH2) |
| 8.6 µM | – | – | – | – | – | CC[C@@H](C)[C@@H](NC(=O)[C@@H](Cc1c[nH]c2ccccc12)NC(=O)[C@@H](CC(C)C)NC(C)=O)C(=O)N[C@@H](C(=O)N[C@H](Cc1c[nH]cn1)C(=O)N[C@H](Cc1c[nH]c2ccccc12)C(N)=O)[C@H](C)CC [Ac-(D)Leu-(D)Trp-(D)Ile-(D)Ile-(D)His-(D)Trp-NH2] (Ac-[dL][dW][dI][dI][dH][dW]-NH2) |
| – | – | – | – | 1.16 µM | especially high activity | CC(=O)N[C@@H](CC(C)C)C(=O)N[C@@H](Cc1c[nH]c2ccccc12)C(=O)N[C@@H](CCCNC(=N)N)C(=O)N[C@@H](Cc1c[nH]cn1)C(=O)N[C@@H](Cc1c[nH]cn1)C(=O)N[C@@H](Cc1c[nH]c2ccccc12)C(N)=O [Ac-Leu-Trp-Arg-His-His-Trp-NH2] (Ac-LWRHHW-NH2) |
